Measurements as given in ChEMBL document CHEMBL4808247 (Bioorg Med Chem, 2021).
≈ marks a conversion by molar mass, not a printed value.

What was measured:
[1] = system: Enterobacter cloacae; assay: Antibacterial activity against Enterobacter cloacae IR32 producing class B beta-lactamase, NDM1 assessed as reduction in microbial growth incubated for 16 to 20 hrs by broth microdilution method; format: functional; details: time 16-20 hrs
[2] = system: Escherichia coli; assay: Antibacterial activity against Escherichia coli BL21(DE3) transfected with pET9a vector harboring class D beta lactamase, OXA-48 incubated for 16 to 20 hrs by broth microdilution method; format: functional; details: time 16-20 hrs
[3] = system: Escherichia coli; assay: Antibacterial activity against Escherichia coli BL21(DE3) transfected with pET9a empty vector incubated for 16 to 20 hrs by broth microdilution method; format: functional; details: time 16-20 hrs
[4] = system: Escherichia coli; assay: Antibacterial activity against Escherichia coli BL21(DE3) transfected with pET9a vector harboring class A beta lactamase, CTX-M-15 incubated for 16 to 20 hrs by broth microdilution method; format: functional; details: time 16-20 hrs
[5] = system: Escherichia coli; assay: Antibacterial activity against Escherichia coli BL21(DE3) transfected with pET9a vector harboring class B beta lactamase, NDM-1 incubated for 16 to 20 hrs by broth microdilution method; format: functional; details: time 16-20 hrs
[6] = system: Escherichia coli; assay: Antibacterial activity against Escherichia coli BL21(DE3) transfected with pET9a vector harboring class C beta lactamase, AmpC incubated for 16 to 20 hrs by broth microdilution method; format: functional; details: time 16-20 hrs
[7] = Ratio of MIC for antibacterial activity against Escherichia coli BL21(DE3) transfected with pET9a vector harboring class B beta lactamase NDM-1 to MIC for antibacterial activity against Escherichia coli BL21(DE3); format: functional
[8] = Ratio of MIC for antibacterial activity against Escherichia coli BL21(DE3) transfected with pET9a vector harboring class C beta lactamase AmpC to MIC for antibacterial activity against Escherichia coli BL21(DE3); format: functional
[9] = system: Escherichia coli; assay: Antibacterial activity against Escherichia coli NIHJ JC-2 assessed as reduction in microbial growth incubated for 16 to 20 hrs by broth microdilution method; format: functional; details: time 16-20 hrs
[10] = system: Escherichia coli; assay: Antibacterial activity against Escherichia coli SR34100 producing class A beta-lactamase, CTX-M-15 assessed as reduction in microbial growth incubated for 16 to 20 hrs by broth microdilution method; format: functional; details: time 16-20 hrs
[11] = system: Enterobacter cloacae; assay: Antibacterial activity against Enterobacter cloacae SR36276 producing class C beta-lactamase, AmpC assessed as reduction in microbial growth incubated for 16 to 20 hrs by broth microdilution method; format: functional; details: time 16-20 hrs
[12] = system: Klebsiella pneumoniae; assay: Antibacterial activity against Klebsiella pneumoniae PLE producing class D beta-lactamase, OXA-48 assessed as reduction in microbial growth incubated for 16 to 20 hrs by broth microdilution method; format: functional; details: time 16-20 hrs
[13] = system: Klebsiella pneumoniae; assay: Antibacterial activity against Klebsiella pneumoniae JMI:211 producing class A beta-lactamase, KPC-2 assessed as reduction in microbial growth incubated for 16 to 20 hrs by broth microdilution method; format: functional; details: time 16-20 hrs
[14] = Inhibition of CMY-2 in Escherichia coil BL21 assessed as inhibition of nitrocefin hydrolysis measured every 3 mins for 15 mins by UV spectrophotometer analysis; parameters: species or system Escherichia coli BL21
[15] = system: Klebsiella pneumoniae; assay: Antibacterial activity against Klebsiella pneumoniae ATCC13883 assessed as reduction in microbial growth incubated for 16 to 20 hrs by broth microdilution method; format: functional; details: time 16-20 hrs
[16] = system: Enterobacter cloacae; assay: Antibacterial activity against Enterobacter cloacae 1,261,347 producing class A beta lactamase, PER-2 assessed as reduction in microbial growth incubated for 16 to 20 hrs by broth microdilution method; format: functional; details: time 16-20 hrs
[17] = system: Enterobacterales; assay: Antimicrobial activity against Enterobacterales producing KPC assessed as reduction in microbial growth measured after 16 to 20 hrs by broth microdilution method; format: functional; details: time 16-20 hrs
[18] = system: Enterobacterales; assay: Antimicrobial activity against Enterobacterales producing NDM assessed as reduction in microbial growth measured after 16 to 20 hrs by broth microdilution method; format: functional; details: time 16-20 hrs
[19] = system: Enterobacterales; assay: Antimicrobial activity against Enterobacterales producing VIM assessed as reduction in microbial growth measured after 16 to 20 hrs by broth microdilution method; format: functional; details: time 16-20 hrs
[20] = system: Enterobacterales; assay: Antimicrobial activity against Enterobacterales producing OXA-48 assessed as reduction in microbial growth measured after 16 to 20 hrs by broth microdilution method; format: functional; details: time 16-20 hrs
[21] = system: Klebsiella pneumoniae; assay: Antibacterial activity against Klebsiella pneumonia ATCC 13883 infected in cyclophosphamide-induced neutropenic Jcl:ICR mouse model assessed as log10 reduction in CFU at 10 mg/kg, sc administered at 2, 5 and 8 hrs after infection and measured at 10 hrs after infection; format: functional
[22] = system: Klebsiella pneumoniae; assay: Antibacterial activity against Klebsiella pneumonia ATCC 13883 infected in cyclophosphamide-induced neutropenic Jcl:ICR mouse model assessed as log10 reduction in CFU at 3 mg/kg, sc administered at 2, 5 and 8 hrs after infection and measured at 10 hrs after infection; format: functional

MIC [1] [µg/mL] | MIC [9] [µg/mL] | MIC [10] [µg/mL] | MIC [11] [µg/mL] | MIC [12] [µg/mL] | MIC [13] [µg/mL] | Structure (SMILES) | other results
0.25 | 0.125 | 0.5 | 16 | 1 | 0.5 | C[C@@H](O/N=C(\C(=O)N[C@@H]1C(=O)N2[C@@H]1SC[C@@H]1CC(=O)O[C@@]12C(=O)O)c1csc(N)n1)C(=O)O (stereo in doubt) | –
0.5 | 0.25 | 0.5 | 1 | 4 | 0.5 | CCO/N=C(\C(=O)N[C@@H]1C(=O)N2[C@@H]1[S@@+]([O-])C[C@@H]1CC(=O)O[C@@]12C(=O)O)c1csc(N)n1 (stereo in doubt) | –
2 | 1 | 8 | 1 | 4 | 1 | Nc1nc(/C(=N/OCC(=O)O)C(=O)N[C@@H]2C(=O)N3[C@@H]2[S@@+]([O-])C[C@@H]2CC(=O)O[C@@]23C(=O)O)ns1 | –
0.25 | 0.125 | 0.25 | 8 | 1 | 0.5 | Nc1nc(/C(=N/OC2(C(=O)O)CC2)C(=O)N[C@@H]2C(=O)N3[C@@H]2SC[C@@H]2CC(=O)O[C@@]23C(=O)O)cs1 (stereo in doubt) | –
2 | 0.25 | 1 | > 32 | 0.5 | 0.5 | Nc1nc(/C(=N/OCC(=O)O)C(=O)N[C@@H]2C(=O)N3[C@@H]2[S@+]([O-])C[C@@H]2CC(=O)O[C@@]23C(=O)O)cs1 (stereo in doubt) | –
0.25 | 0.25 | 0.5 | 0.25 | 0.5 | 0.5 | Nc1nc(/C(=N/OC2(C(=O)O)CC2)C(=O)N[C@@H]2C(=O)N3[C@@H]2[S@@+]([O-])C[C@@H]2CC(=O)O[C@@]23C(=O)O)cs1 (stereo in doubt) | –

Structure (SMILES) | MIC [1] [µg/mL] | MIC [9] [µg/mL] | MIC [10] [µg/mL] | MIC [11] [µg/mL] | MIC [12] [µg/mL] | MIC [13] [µg/mL] | other results
CC(C)(O/N=C(\C(=O)N[C@H]1CON(C2(C(=O)O)CCC(=O)O2)C1=O)c1csc(N)n1)C(=O)O (stereo in doubt) | 1 | 0.25 | 4 | > 32 | 1 | – | MIC [2]: 0.063 µg/mL (≈ 0.13 µM); MIC [3]: 0.063 µg/mL (≈ 0.13 µM); MIC [4]: 0.063 µg/mL (≈ 0.13 µM); MIC [5]: 0.25 µg/mL (≈ 0.515 µM); MIC [6]: 2 µg/mL (≈ 4.12 µM); Ratio [7]: 4; Ratio [8]: 32
Nc1nc(/C(=N/OCC(=O)O)C(=O)N[C@@H]2C(=O)N3[C@@H]2[S@@+]([O-])C[C@@H]2CC(=O)O[C@@]23C(=O)O)cs1 (stereo in doubt) | 0.063 | 0.063 | 0.125 | 0.063 | 0.125 | 0.063 | Ki [14]: > 60 µM; MIC [15]: 0.125 µg/mL; MIC [16]: 0.25 µg/mL; MIC50 [17]: 0.25 µg/mL; MIC90 [17]: 0.5 µg/mL; MIC50 [18]: 0.25 µg/mL; MIC90 [18]: 1 µg/mL; MIC50 [19]: 0.25 µg/mL; MIC90 [19]: 1 µg/mL; MIC50 [20]: 0.125 µg/mL; MIC90 [20]: 0.25 µg/mL; Activity [21]: 2.46 log10CFU; Activity [22]: 2.11 log10CFU
